{
  "source": "patent US20220089663A1",
  "about": "“PROTEINS AND FLUOROPHORE-CONTAINING COMPOUNDS SELECTIVE FOR NaV1.7” (MEMORIAL SLOAN KETTERING CANCER CENTER, priority 2019, published 2022)",
  "key": {"hNav1.1": {"biological_target": "T1, hNav1.1 (Homo sapiens, UniProt P35498)", "T1 construct": "host or cells: HEK293", "assay": "automated whole-cell patch clamp (QPatch 16X), HEK293-hNav1.1", "type": "cell-based"}, "hNav1.5": {"biological_target": "T2, hNav1.5 (Homo sapiens, UniProt Q14524)", "T2 construct": "host or cells: HEK293", "T2 sequence (Q14524 whole entry)": "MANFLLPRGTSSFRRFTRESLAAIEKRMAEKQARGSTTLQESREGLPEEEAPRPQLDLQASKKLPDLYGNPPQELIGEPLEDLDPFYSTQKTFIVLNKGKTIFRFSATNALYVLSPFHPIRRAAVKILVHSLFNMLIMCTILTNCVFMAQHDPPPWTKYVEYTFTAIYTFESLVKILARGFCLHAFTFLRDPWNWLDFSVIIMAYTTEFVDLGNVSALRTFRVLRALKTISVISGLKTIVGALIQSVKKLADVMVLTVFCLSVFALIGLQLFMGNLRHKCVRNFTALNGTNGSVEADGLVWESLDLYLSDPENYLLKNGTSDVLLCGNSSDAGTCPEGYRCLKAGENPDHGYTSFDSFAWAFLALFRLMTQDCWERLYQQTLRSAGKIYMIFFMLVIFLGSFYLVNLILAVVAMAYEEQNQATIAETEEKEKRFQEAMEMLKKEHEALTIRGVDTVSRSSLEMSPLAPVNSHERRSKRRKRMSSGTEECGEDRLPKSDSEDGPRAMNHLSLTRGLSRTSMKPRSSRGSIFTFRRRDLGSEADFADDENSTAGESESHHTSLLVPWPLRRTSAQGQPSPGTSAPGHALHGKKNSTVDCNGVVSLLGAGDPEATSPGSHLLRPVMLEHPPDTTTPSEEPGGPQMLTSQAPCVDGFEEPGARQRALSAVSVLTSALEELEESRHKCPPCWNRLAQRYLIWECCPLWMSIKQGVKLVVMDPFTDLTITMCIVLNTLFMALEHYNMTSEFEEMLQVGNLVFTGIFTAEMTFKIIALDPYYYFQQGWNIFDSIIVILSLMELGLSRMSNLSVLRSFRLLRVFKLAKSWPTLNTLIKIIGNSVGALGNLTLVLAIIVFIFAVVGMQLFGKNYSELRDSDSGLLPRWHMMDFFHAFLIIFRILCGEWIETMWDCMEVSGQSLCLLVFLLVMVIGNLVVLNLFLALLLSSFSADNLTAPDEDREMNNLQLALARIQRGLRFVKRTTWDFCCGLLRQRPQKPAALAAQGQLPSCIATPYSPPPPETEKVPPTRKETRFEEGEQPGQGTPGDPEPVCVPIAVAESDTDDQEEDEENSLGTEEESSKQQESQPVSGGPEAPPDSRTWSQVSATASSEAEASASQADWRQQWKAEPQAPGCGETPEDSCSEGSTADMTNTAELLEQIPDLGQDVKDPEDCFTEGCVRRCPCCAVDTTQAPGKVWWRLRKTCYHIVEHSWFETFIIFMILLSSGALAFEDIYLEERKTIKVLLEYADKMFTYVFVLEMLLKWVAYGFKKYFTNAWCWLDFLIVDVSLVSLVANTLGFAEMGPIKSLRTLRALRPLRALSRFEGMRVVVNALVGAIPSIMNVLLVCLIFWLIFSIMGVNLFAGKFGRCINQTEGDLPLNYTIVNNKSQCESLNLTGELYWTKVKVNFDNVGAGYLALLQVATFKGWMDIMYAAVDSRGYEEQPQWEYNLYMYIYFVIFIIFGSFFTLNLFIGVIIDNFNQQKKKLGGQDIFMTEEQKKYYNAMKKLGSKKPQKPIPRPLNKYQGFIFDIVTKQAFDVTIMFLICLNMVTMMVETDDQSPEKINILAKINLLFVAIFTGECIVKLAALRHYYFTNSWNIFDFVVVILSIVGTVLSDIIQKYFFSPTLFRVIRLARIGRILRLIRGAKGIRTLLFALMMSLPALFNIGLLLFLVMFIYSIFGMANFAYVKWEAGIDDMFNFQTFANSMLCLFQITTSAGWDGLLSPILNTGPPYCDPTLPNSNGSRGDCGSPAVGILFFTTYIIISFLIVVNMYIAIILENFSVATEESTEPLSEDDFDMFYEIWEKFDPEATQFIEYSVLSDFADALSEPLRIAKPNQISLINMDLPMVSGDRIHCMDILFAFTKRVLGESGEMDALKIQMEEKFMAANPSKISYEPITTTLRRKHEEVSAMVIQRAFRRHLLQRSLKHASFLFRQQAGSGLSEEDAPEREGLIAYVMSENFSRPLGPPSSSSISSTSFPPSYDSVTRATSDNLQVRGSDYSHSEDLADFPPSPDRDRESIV", "assay": "automated whole-cell patch clamp (QPatch 16X), HEK293-hNav1.5", "type": "cell-based"}, "CVH mice": {"system": "CVH mice", "assay": "visceromotor response (VMR) to colorectal distension in chronic visceral hypersensitivity (CVH) mice", "type": "in vivo, mouse", "conditions": "intra-colonic 200 nM", "method": "Model of Chronic Visceral Hypersensitivity (CVH). All experiments were performed in accordance with the guidelines of the Animal Ethics Committees of the South Australian Health and Medical Research Institute (SAHMRI) and Flinders University. Male C57 BL/6 mice were used in all experiments.\nColitis was induced by administration of Trinitrobenzene Sulphonic acid (TNBS) as described previously (Castro et al., Gut 66(6):1083-1094 (2017); Osteen et al., Nature 534: 494-499 (2016)). Briefly, 13-week-old mice were fasted overnight with access to 5% glucose solution. After the fasting period, isofluorane anaesthetized mice were administered an intracolonic enema of 0.1 mL TNBS ([…] in 30% EtOH) via a polyethylene catheter inserted 3 cm past the anus. […]\nIn vivo Visceromotor Responses (VMR) to Colorectal Distension (CRD). […] The EMG electrodes were relayed to a data acquisition system and the signal was recorded (NL100AK headstage), amplified (NL104), filtered (NL 125/126, Neurolog, Digitimer Ltd, bandpass 50-5000 Hz) and digitized (CED 1401, Cambridge Electronic Design, Cambridge, UK) to a PC for off-line analysis using Spike2 (Cambridge Electronic Design). […] To quantify the magnitude of the VMR at each distension pressure, the area under the curve (AUC) during the distension (20 s) was corrected for the baseline activity (AUC pre-distension, 20 s)."}},
  "data": [
    {"molecule": "CC[C@H](C)[C@H](NC(=O)[C@H](CCCCN)NC(=O)[C@@H]1CSSC[C@@H]2NC(=O)[C@@H]3CCCN3C(=O)[C@H](CCCNC(=N)N)NC(=O)[C@H](CCC(=O)O)NC(=O)[C@H](CO)NC(=O)[C@H](CC(=O)O)NC(=O)[C@@H]3CSSC[C@H](NC(=O)[C@H](C(C)C)NC(=O)[C@H](CC(C)C)NC(=O)CNC(=O)[C@H](CCC(=O)O)NC(=O)[C@H](CSSC[C@H](NC(=O)[C@@H](N)Cc4ccc(O)cc4)C(=O)N[C@@H](CCC(N)=O)C(=O)N[C@@H](CCCCN)C(=O)N[C@@H](Cc4ccccc4)C(=O)N[C@@H](CC(C)C)C(=O)N[C@@H](Cc4c[nH]c5ccccc45)C(=O)N[C@@H]([C@@H](C)O)C(=O)N3)NC2=O)C(=O)N[C@@H](CCCNC(=N)N)C(=O)N[C@@H](CC(C)C)C(=O)N[C@@H](Cc2c[nH]c3ccccc23)C(=O)N1)C(=O)N[C@@H](CC(N)=O)C(N)=O", "note": "[sHsp1a]", "values": [
      {"measurement": "hNav1.1 currents blocked", "setting": "hNav1.1; at 200 nM", "result": 30, "unit": "%"},
      {"measurement": "inhibition at 2 µM", "setting": "hNav1.1; at 2 μM, read-out: current inhibition hNav1.1", "result": 75, "unit": "%"},
      {"measurement": "IC50", "setting": "hNav1.1; mean±S.E.M, read-out: pIC50 on hNav1.1 (converted)", "result": 407, "unit": "nM"},
      {"measurement": "inhibition of hNav1.5 currents", "setting": "hNav1.5; at 200 nM", "result": "did not show any significant inhibition"},
      {"measurement": "sensitivity of hNav1.5", "setting": "hNav1.5; at 2 μM", "result": "insensitive"},
      {"measurement": "inhibition at 2 µM", "setting": "hNav1.5; at 2 μM, read-out: max. current inhibition hNav1.5", "result": "< 50", "unit": "%"},
      {"measurement": "IC50", "setting": "hNav1.5; read-out: pIC50 on hNav1.5 (converted)", "result": "> 1000", "unit": "nM"},
      {"measurement": "VMR to colorectal distension compared to CVH vehicle treated animals", "setting": "CVH mice", "result": "significantly reduced the VMR"}
    ]}
  ]
}
